Patent US10668040B2, “Treatment of urea cycle disorders in neonates and infants” (Horizon Therapeutics, LLC, priority 2017, dated 2020)

Assays:
[1] = tested on: UCD patients; conditions: 4 patients aged 2 months to 2 years; cited from earlier work
[2] = tested on: UCD patients; experiment: HPN-100-009 (Example 2): treatment-emergent, serious and non-serious adverse events; assay type: in vivo, human; conditions: Age 2 Months to <2 Years
Description: Number of Subjects with Treatment-Emergent Adverse Events (TEAEs), Serious TEAEs, Deaths, and Discontinuations Due to TEAEs.
End point description. An adverse event (AE) was any untoward medical occurrence, whether or not the event is considered related to the study drug. […] TEAEs were defined as AEs with an onset date on or after the first dose of study medication until study discontinuation. The Investigator assessed the causal relationship of each TEAE to the study drug as not related, possibly related, or probably related. Safety population: all enrolled subjects who received any amount of study medication. End point timeframe: up to 370 days.
Adverse Events Information.
Timeframe for reporting adverse events: From first dose of study treatment up to 370 days (data cutoff); median (full range) duration of treatment was 4.68 (0.2 to 10.9) months. Adverse event reporting additional description: TEAEs (defined as AEs with an onset date on or after the first dose of study medication until study discontinuation) are presented.

[3] = HPN-100-009 (Example 2): urinary PAGN concentrations on first full day of dosing; assay type: in vivo, human
Protocol: Assessment of Urinary PAGN Concentrations on the First Full Day of RAVICTI® Dosing.
End point description. Urinary PAGN concentration was measured through urine collection. PK Evaluable Population: all subjects from the safety population with individual concentration-time profiles that allow computation of meaningful PK parameter values. End point timeframe: Hour 0 and between 0.5 and 1 hour, 1.5 and 2.5 hours, 4 and 6 hours, 7.5 and 8.5 hours, and between 12 and 24 hours after the first dose of the day on Day 1 for stable subjects and on Day 2 for subjects in HAC.

[4] = Example 3: plasma PBA, PAA, PAGN PK on first full day of RAVICTI dosing; assay type: in vivo, human
Protocol: Pharmacokinetic (PK) Evaluable Population: all subjects from the safety population with individual concentration-time profiles that allow computation of meaningful PK parameter values. Measurements were taken at hour 0, between 4 and 6 hours, 8 hours, and between 12 and 24 hours after the first dose of the day on day 1 for stable subjects and on day 2 for subjects in HAC.
PK Evaluable Population: all subjects from the safety population with individual concentration-time profiles that allow computation of meaningful PK parameter values. Measurements were taken at hour 0, between 4 and 6 hours, 8 hours, and between 12 and 24 hours after the first dose of the day on day 1 for stable subjects and on day 2 for subjects in HAC.

[5] = tested on: pediatric UCD patients; experiment: Pooled ammonia analyses from short term studies; assay type: in vivo, human
Protocol: Pooled ammonia analyses from short term studies were also conducted.

[6] = tested on: UCD patients; experiment: HPN-100-009 (Example 2): growth and development, BMI and BSA Z-scores; assay type: in vivo, human; conditions: Age 2 Months to <2 Years
Protocol: Assessment of Growth and Development: Baseline and Change from Baseline in Body Mass Index (BMI) Z-Score and Body Surface Area (BSA) Z-Score Up to Month 9.
End point description. To assess any effect of study drug treatment on growth, Z-scores were calculated to express the deviation from a reference population for BMI and BSA. The BMI Z-scores are based on the World Health Organization's Child Growth Standards charts. The BSA Z-Scores are based on weight-for-length charts. Negative Z-scores indicate lower than typical for age and gender while positive scores indicate higher than typical for age and gender. […] End point timeframe: Baseline, Day 7, Month 2, Month 3, Month 4, Month 5, Month 6, Month 9.

[7] = aged 0 to 2 months, 16 subjects
[8] = aged 2 months and up to 2 years, 10 subjects

In the case of `O=C(CCCc1ccccc1)OCC(COC(=O)CCCc1ccccc1)OC(=O)CCCc1ccccc1` [RAVICTI, benzenebutanoic acid, 1′,1″-(1,2,3-propanetriyl) ester], the “PAA exposure, 24-hour area under the curve, vs NaPBA” value [1] is given as “very similar”, the “mean ammonia exposure, 24-hour area under the curve, vs NaPBA” value [1] is given as “non-inferior” and the “Non-serious AE Anaemia: Occurrences (All)” value [2] is given as 1. For the same compound, the “Non-serious AE Apnoeic Attack: Occurrences (All)” value [2] was 1, the “Non-serious AE Cough: Occurrences (All)” value [2] was 1 and the “Non-serious AE Deep Vein Thrombosis: Occurrences (All)” value [2] was 1. For the same compound, the “Non-serious AE Diarrhoea: Occurrences (All)” value [2] was 1, the “Non-serious AE Gross Motor Delay: Occurrences (All)” value [2] was 1 and the “Non-serious AE Hypophagia: Occurrences (All)” value [2] was 1. For the same compound, the “Non-serious AE Infections (Gastroenteritis): Occurrences (All)” value [2] was 1, the “Non-serious AE Infections (Nasopharyngitis): Occurrences (All)” value [2] was 1 and the “Non-serious AE Infections (Upper Respiratory Tract): Occurrences (All)” value [2] was 4. For the same compound, the “Non-serious AE Infections (Urinary Tract): Occurrences (All)” value [2] was 1, the “Non-serious AE Infections (Viral): Occurrences (All)” value [2] was 1 and the “Non-serious AE Metabolic Acidosis: Occurrences (All)” value [2] was 1. For the same compound, the “Non-serious AE Nail Ridging: Occurrences (All)” value [2] was 1, the “Non-serious AE Rash: Occurrences (All)” value [2] was 2 and the “Non-serious AE Rhinorrhoea: Occurrences (All)” value [2] was 1. For the same compound, the “Non-serious AE Stoma Site Reaction: Occurrences (All)” value [2] was 1, the “Non-serious AE Teething: Occurrences (All)” value [2] was 1 and the “Non-serious AE Tibia Fracture: Occurrences (All)” value [2] was 1. For the same compound, the “Non-serious AE Vesicoureteric Reflux: Occurrences (All)” value [2] was 1, the “Non-serious AE Vomiting: Occurrences (All)” value [2] was 3 and the “Number of Deaths (All Causes)” value [2] was 1. For the same compound, the “Serious AE Apnoeic Attack: Deaths Causally Related to Treatment/All” value [2] was 0/0, the “Serious AE Apnoeic Attack: Occurrences Causally Related to Treatment/All” value [2] was 0/2 and the “Serious AE Hyperammonaemia: Deaths Causally Related to Treatment/All” value [2] was 0/0. For the same compound, the “Serious AE Hyperammonaemia: Occurrences Causally Related to Treatment/All” value [2] was 0/8, the “Serious AE Infections (Croup): Deaths Causally Related to Treatment/All” value [2] was 0/0 and the “Serious AE Infections (Croup): Occurrences Causally Related to Treatment/All” value [2] was 0/1. The “Serious AE Infections (Gastroenteritis): Deaths Causally Related to Treatment/All” value [2] was 0/0, the “Serious AE Infections (Gastroenteritis): Occurrences Causally Related to Treatment/All” value [2] was 0/1 and the “Serious AE Infections (Urinary Tract): Deaths Causally Related to Treatment/All” value [2] was 0/0. For the same compound, the “Serious AE Infections (Urinary Tract): Occurrences Causally Related to Treatment/All” value [2] was 0/1, the “Serious AE Infections (Viral): Deaths Causally Related to Treatment/All” value [2] was 0/0 and the “Serious AE Infections (Viral): Occurrences Causally Related to Treatment/All” value [2] was 0/1. For the same compound, the “Serious AE Pneumatosis: Deaths Causally Related to Treatment/All” value [2] was 0/1, the “Serious AE Pneumatosis: Occurrences Causally Related to Treatment/All” value [2] was 0/1 and the “Subjects with fatal outcome TEAE” value ([2]; 10 analyzed, up to 370 days) was 1 Subjects. For the same compound, the “Subjects with ≥1 Related TEAE” value ([2]; 10 analyzed, up to 370 days) was 4 Subjects, the “Subjects with ≥1 Serious Related TEAE” value ([2]; 10 analyzed, up to 370 days) was 0 Subjects and the “Subjects with ≥1 Serious TEAE” value ([2]; 10 analyzed, up to 370 days) was 6 Subjects. The “Subjects with ≥1 TEAE” value ([2]; 10 analyzed, up to 370 days) was 10 Subjects, the “Subjects with ≥1 TEAE Leading to Study Discontinuation” value ([2]; 10 analyzed, up to 370 days) was 1 Subjects and the “Urinary PAGN concentration” value ([3]; Age 2 Months to <2 Years, Hour 0.5 to 1) was 4140.2 (±4398.8) μg/mL. The “Urinary PAGN concentration” value ([3]; Age 2 Months to <2 Years, Hour 1.5 to 2.5) was 3145.2 (±5044.5) μg/mL, the “Urinary PAGN concentration” value ([3]; Age 2 Months to <2 Years, Hour 4 to 6) was 5201.6 (±4546.6) μg/mL and the “Urinary PAGN concentration” value ([3]; Age 2 Months to <2 Years, Hour 7.5 to 8.5) was 4290 (±3147.2) μg/mL. The “Urinary PAGN concentration” value ([3]; Age 2 Months to <2 Years, Hour 12 to 24) was 7561.1 (±6955.7) μg/mL, the “Urinary PAGN concentration” value ([3]; Age 2 months to <2 years, Hour 0) was 3478.3 (±1775.4) μg/mL and the “Plasma PBA mean Cmin” value ([4]; aged 0 to 2 months, 7 subjects) was 4.8 (±4.2) μg/mL. The “mean plasma PAA Cmin” value ([4]; aged 0 to 2 months, 10 subjects) was 98.98 (±122.07) μg/mL, the “mean plasma PAGN Cmin” value ([4]; aged 0 to 2 months, 13 subjects) was 69.39 (±54.03) μg/mL and the “Plasma PBA mean AUC[0-last]” value [4, 7] was 374.53 (±390.48) μg*hr/mL. The “Plasma PBA mean Cmax” value [4, 7] was 46.2 (±49.8) μg/mL, the “Plasma PBA mean Tmax” value [4, 7] was 9.39 (±7.41) hr and the “mean plasma PAA AUC(0-last)” value [4, 7] was 1321.18 (±1220.52) μg*hr/mL. The “mean plasma PAA Cmax” value [4, 7] was 115.3 (±102.0) μg/mL, the “mean plasma PAA Tmax” value [4, 7] was 9.85 (±9.26) hr and the “mean plasma PAGN AUC(0-last)” value [4, 7] was 1384.12 (±1141.03) μg*hr/mL. For the same compound, the “mean plasma PAGN Cmax” value [4, 7] was 102.1 (±48.6) μg/mL, the “mean plasma PAGN Tmax” value [4, 7] was 11.72 (±8.24) hr and the “Plasma PBA mean AUC[0-last]” value [4, 8] was 280.936 (±293.553) μg*hr/mL. For the same compound, the “Plasma PBA mean Cmax” value [4, 8] was 42.11 (±36.715) μg/mL, the “Plasma PBA mean Cmin” value [4, 8] was 1.697 (±2.254) μg/mL and the “Plasma PBA mean Tmax” value [4, 8] was 8.383 (±4.564) hr. The “mean plasma PAA AUC(0-last)” value [4, 8] was 246.126 (±238.547) μg*hr/mL, the “mean plasma PAA Cmax” value [4, 8] was 36.52 (±31.784) μg/mL and the “mean plasma PAA Cmin” value [4, 8] was 4.197 (±6.434) μg/mL. The “mean plasma PAA Tmax” value [4, 8] was 7.422 (±7.351) hr, the “mean plasma PAGN AUC(0-last)” value [4, 8] was 583.835 (±285.241) μg*hr/mL and the “mean plasma PAGN Cmax” value [4, 8] was 62.45 (±27.281) μg/mL. For the same compound, the “mean plasma PAGN Cmin” value [4, 8] was 20.62 (±14.529) μg/mL, the “mean plasma PAGN Tmax” value [4, 8] was 6.573 (±7.181) hr and the abnormal ammonia values [5] was 15%. The BMI Z-Score baseline [6] was 0.795, the BMI Z-score, Change from Baseline at Day 7 [6] was -0.211 and the BMI Z-score, Change from Baseline at Month 2 [6] was 0.0021. For the same compound, the BMI Z-score, Change from Baseline at Month 3 [6] was 0.213, the BMI Z-score, Change from Baseline at Month 4 [6] was 0.47 and the BMI Z-score, Change from Baseline at Month 5 [6] was 0.164. For the same compound, the BMI Z-score, Change from Baseline at Month 6 [6] was 0.469, the BSA Z-Score baseline [6] was 0.686 and the BSA Z-score, Change from Baseline at Day 7 [6] was -0.185. For the same compound, the BSA Z-score, Change from Baseline at Month 2 [6] was -0.0437, the BSA Z-score, Change from Baseline at Month 3 [6] was 0.119 and the BSA Z-score, Change from Baseline at Month 4 [6] was 0.381. For the same compound, the BSA Z-score, Change from Baseline at Month 5 [6] was 0.198 and the BSA Z-score, Change from Baseline at Month 6 [6] was 0.398.
